Assay [1] concerns rabbit jugular vein thrombus. The assay is described as follows: Rabbit jugular vein thrombosis model, thrombus weight. Type of assay: in vivo. The note with it: for Thrombus weight (wet): 90 min. Here is the method:
Thrombosis was initiated ex vivo and introduced into the jugular vein. Treatment compound(s) were administered to the animals after thrombus formation and introduction. Fibrinolysis was assessed by measuring clot weight at the end of the study. […] The threshold dose of tPA was combined with either a TAFI inhibitor of the invention, (2S)-2-(3-(amino)methylphenyl)-3-(((1R)-1-(3-phenylpropylsulfonyl)amino-2-methylpropyl)(hydroxy)phosphinoyl)propanoic acid trifluoroacetate, or the peptidic TAFI inhibitor CPI, which was used as a positive control to confirm the effect of TAFI inhibition in this model.
Male New Zealand white rabbits (2.35-3.14 kg) were anesthetized using isoflurane. A segment of the jugular vein was isolated with ligatures and injected with a mixture of autologous citrated blood and thromboplastin to induce thrombus formation. The thrombus formed in the isolated venous segment was allowed to mature for 30 minutes prior to releasing the ligatures and initiating thrombolytic treatment.
Rabbits were divided into the following treatment groups (10-12 animals per group): • (1) vehicle; phosphate buffered saline (PBS) • (2) threshold fibrinoloytic dose tPA (10 μg/kg+67 μg/kg/hr) • (3) CPI (500 μg/kg+300 μg/kg/hr)+tPA low (10 μg/kg+67μg/kg/hr) • (4) low TAFI inhibitor (0.3 mg/kg+0.14 mg/kg/hr)+tPA low (10 μg/kg+67 μg/kg/hr) • (5) high TAFI inhibitor (3 mg/kg+1.4 mg/kg/hr)+tPA low ([…]+67 μg/kg/hr) • (6) maximally effective dose tPA (30 μg/kg+200 μg/kg/hr)
Blood samples were collected from the left jugular vein for measurement of TAFI inhibitor plasma drug levels prior to releasing the ligatures (time=0), and at 1, 10, 30, 60, and 90 minutes after starting thrombolytic treatment. CPI, TAFI inhibitor, tPA or vehicle were administered as bolus injections, followed by a constant infusion for 90 minutes via the right marginal ear vein. At the end of 90 minutes, the rabbits were euthanized and the thrombus was removed for determination of wet and dry weights. The relative effects of all treatment groups were the same, regardless of whether wet or dry weights were utilized for analysis, so only wet weights are used in the subsequent discussion. The assessment of bleeding risk was evaluated by measuring the weight of blood loss from toe nail clips performed prior to thrombolytic treatment, and at the end of the study. Re-bleeding from the previous site following initial hemostasis was also recorded.
Data were analyzed using ANOVA followed by the LSD test for a comparison of differences in thrombus weight in the various treatment groups. In the vehicle-treated animals (group 1) thrombus weights averaged 98±9 mg. […] When either CPI (group 3) or TAFI inhibitor (group 4 or 5) was given together with the low dose of tPA, the threshold effect of tPA was enhanced, and a significant reduction in thrombus weights was observed when compared to the vehicle-treated group. This enhancement of fibrinolytic activity of tPA for the CPI group (68±10 mg) and the low dose TAFI inhibitor group (63±10 mg) was similar to results obtained with the high dose TAFI inhibitor group (56±13 mg). In animals treated with the higher dose of tPA (group 6), a significant reduction in thrombus weight (41±7 mg) was observed compared to both the vehicle and low dose tPA groups.

Assay [2] concerns dog femoral artery occlusive thrombus. The assay is described as follows: Dog femoral artery thrombosis model (FeCl2 injury), reperfusion and time to occlusion. In kind it is in vivo. The conditions noted are these: TAFI inhibitor pre-treatment (10 min before FeCl2), n=6, p=ns vs control group. The text has this: A dog femoral artery thrombosis model was used to test that TAFI inhibition by i.v. administration of a potent and selective TAFI inhibitor would potentiate fibrinolysis. A stable, occlusive thrombus was formed using FeCl2 to chemically injure the arterial wall. Thrombotic occlusion and reperfusion (effective fibrinolysis) were monitored by measuring blood flow with a Doppler flow probe. Since no spontaneous reperfusion is observed in this model, a sub-maximal dose of tPA was used to enhance baseline activity. […] Bleeding propensity was measured by determining the time required for bleeding to stop following a series of standardized wounds (sectioning of the cuticle).
Male Beagle dogs (8-12 kg) were anesthetized with isoflurane (2-3%). […] Femoral artery blood flow, systemic blood pressure, heart rate and breathing patterns were monitored and recorded on a data acquisition system during the experiment. […] The time for the cut to cease bleeding was recorded as the primary bleeding time.
After stabilization of hemodynamic parameters, a blood sample was taken for drug levels. […] Bleeding time was determined and a blood sample was collected 20 min after the start of the tPA infusion. […]

For the compound `CC(C)[C@H](NS(=O)(=O)CCCc1ccccc1)P(=O)(O)C[C@H](C(=O)O)c1cccc(CN)c1.O=C(O)C(F)(F)F` [TAFI inhibitor, (2S)-2-(3-(amino)methylphenyl)-3-(((1R)-1-(3-phenylpropylsulfonyl)amino-2-methylpropyl)(hydroxy)phosphinoyl)propanoic acid trifluoroacetate], the “% Reduction Thrombus Weight” value in assay [1] (0.3 mg/kg TAFI inhibitor + tPA post-thrombus formation, p = ns) is on record as 36% p = ns; in assay [1] (3 mg/kg TAFI inhibitor + tPA post-thrombus formation, p = ns), 43% p = ns. Also, the “Thrombus weight (wet)” value in assay [1] (high TAFI inhibitor 3 mg/kg + 1.4 mg/kg/hr + tPA low (10 pg/kg + 67 μg/kg/hr)) was found to be 56 ± 13 mg; in assay [1] (low TAFI inhibitor 0.3 mg/kg + 0.14 mg/kg/hr + tPA low (10 μg/kg + 67 μg/kg/hr)) it was 63 ± 10 mg. In addition, the “Time to occlusion induced by FeCl2” value in assay [2] was 31.1 ± 3.9 min.

Take “tPA: tissue-type plasminogen activator, a plasminogen activator used as thrombolytic agent”: the “Thrombus weight (wet)” value in assay [1] (higher (maximally effective) dose tPA 30 μg/kg + 200 μg/kg/hr alone) came to 41 ± 7 mg; in assay [1] (low (threshold) dose tPA 10 μg/kg + 67 μg/kg/hr alone, not significant vs vehicle), 80 ± 11 mg. The “% Reduction Thrombus Weight” value in assay [1] (threshold dose tPA (10 μg/kg + 1 μg/kg/min) alone) is given as 18%.

The values above are taken from patent US20060234986A1, “Use of TAFI inhibitors for enhanced myocardial reperfusion and facilitated PCI” (Schering Aktiengesellschaft, priority 2005, published 2006).
